What was measured:
[1] = biological target: membrane-bound hydrogenases in R. eutropha (Cupriavidus necator, UniProt P31891); settings: H2 as substrate; cited from earlier work
R. eutropha [2] = format: cell-based, Ralstonia eutropha; settings: spot assay at different isopropanol concentrations, FIG. 25
Protocol: (§1) The procedure for spot assays was performed by diluting 100 μL of culture grown under different conditions by 1:10 in fresh minimal medium, which was vortexed. Three to four serial 10-fold dilutions were made and 2 μL of each dilution was spotted on rich broth agar plates and allowed to dry. Plates were typically grown for 2 days at 30° C. before imaging. The half maximal inhibitory concentration (IC50) was estimated based on the comparison at 1/100 dilution. The areas of colonies at certain conditions were then compared with that of control samples.
FIG. 25 is a photograph of cell cultures taken for different isopropanol concentration.

R. eutropha [3] = assay: Spot assay of R. eutropha in the presence of Co^2+; format: cell-based, Ralstonia eutropha; settings: estimated by comparison at 1/100 dilution, FIG. 18, read-out: half maximal inhibitory concentration, IC50 (concentration of Co^2+ toxic to R. eutropha)
Protocol: as §1
FIG. 17 presents, cyclic voltammograms of Co^2+ in the phosphate buffer (pH=7), a pre-wave to the catalytic water-splitting current corresponds to the oxidation of Co^2+ to Co^3+, which drives deposition of the catalyst. […] As noted previously, the self-healing property of CoPi alloy is derived from this interplay of the potential at which OER occurs vs. the potential at which the catalyst deposits. In concert, the Co—P and CoPi catalysts maintain extremely low concentrations of Co^2+ in solution through activity derived from the self-healing process. Inductively coupled plasma mass spectrometry (ICP-MS) analysis of a Co-P|CoPi catalysts system (Eappl=2.2 V) confirm that sub-μM levels of Co^2+ are present in solution after 24 h. […]

[4] = tested on: H16 and ROS-resistant BC4 strains of R. eutropha; assay: Spot assay of ROS tolerance with paraquat as ROS-inducer; format: cell-based, Ralstonia eutropha; settings: BC4 vs wild-type H16, FIG. 26
Protocol: as §1
A ROS-resistant variant of R. eutropha, evolved from a reactor including a stainless steel CoPi water-splitting electrode pair after 11 consecutive days of operation at an applied voltage potential of 2.3 V with a H2O2 generation rate of ˜0.6 μM/min. […] However, there was minimal difference noted in ηelec for the current reactor systems using the Co-P|CoPi electrode pairs, confirming minimal concentrations of ROS in the reactors. Of course, it should be understood that BC4 may be used in any reactor system, and may also be beneficial for use in helping systems achieve a high ηelec where ROS are present in larger concentrations.

Sequence of membrane-bound hydrogenases in R. eutropha (P31891 1-603 limits assumed): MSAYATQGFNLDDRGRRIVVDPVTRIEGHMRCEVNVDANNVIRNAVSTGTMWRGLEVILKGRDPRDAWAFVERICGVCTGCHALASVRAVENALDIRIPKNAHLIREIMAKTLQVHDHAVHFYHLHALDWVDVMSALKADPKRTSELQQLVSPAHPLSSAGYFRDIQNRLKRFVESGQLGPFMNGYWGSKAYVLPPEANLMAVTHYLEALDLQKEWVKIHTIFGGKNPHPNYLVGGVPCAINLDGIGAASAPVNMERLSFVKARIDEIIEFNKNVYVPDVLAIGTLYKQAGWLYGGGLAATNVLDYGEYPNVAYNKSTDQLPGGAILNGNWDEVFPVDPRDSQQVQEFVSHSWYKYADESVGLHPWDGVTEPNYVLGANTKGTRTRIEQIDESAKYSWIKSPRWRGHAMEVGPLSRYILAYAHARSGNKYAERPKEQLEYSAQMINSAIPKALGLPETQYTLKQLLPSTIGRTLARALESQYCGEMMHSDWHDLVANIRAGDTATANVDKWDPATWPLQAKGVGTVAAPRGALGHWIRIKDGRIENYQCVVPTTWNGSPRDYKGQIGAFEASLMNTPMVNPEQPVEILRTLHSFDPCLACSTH
Sequence of membrane-bound hydrogenases in R. eutropha (P31892 44-360 partner): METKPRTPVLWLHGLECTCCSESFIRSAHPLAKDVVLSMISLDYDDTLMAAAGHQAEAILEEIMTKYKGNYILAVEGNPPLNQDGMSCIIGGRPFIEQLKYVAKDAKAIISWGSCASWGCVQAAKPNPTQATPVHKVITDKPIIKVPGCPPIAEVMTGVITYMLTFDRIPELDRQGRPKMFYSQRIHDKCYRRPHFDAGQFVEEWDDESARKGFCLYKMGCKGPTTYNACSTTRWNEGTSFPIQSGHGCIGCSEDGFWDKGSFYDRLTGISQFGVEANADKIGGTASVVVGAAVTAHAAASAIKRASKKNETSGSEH

Compound: [HH] [H2, hydrogen]
- Michaelis constant [1]: about 6 μM

Compound: CC(C)O [isopropanol]
- tolerance of R. eutropha towards isopropanol (R. eutropha [2]): demonstrates tolerance

Compound: [Co+2] [Co^2+]
- IC50 (R. eutropha [3]): ~25 µM

Compound: C[n+]1ccc(-c2cc[n+](C)cc2)cc1 [paraquat]
- IC50 of paraquat for BC4 compared with wild type [4]: almost one order of magnitude higher than that of wild type
